Laboratory results taken from patent US10670605B2, “Cysteine reactive probes and uses thereof” (The Scripps Research Institute, priority 2015, dated 2020).
Each block holds one molecule with its values, some of them ahead of it.

Legend:
Assay in all cases: Competitive isoTOP-ABPP in situ (fragment-treated cells)
Format in all cases: cell-based
[1] = molecular target: T1, cysteines in MDA-MB-231 and Ramos cells (Homo sapiens, UniProt A6NDU8)
T1 sequence (A6NDU8 1-294): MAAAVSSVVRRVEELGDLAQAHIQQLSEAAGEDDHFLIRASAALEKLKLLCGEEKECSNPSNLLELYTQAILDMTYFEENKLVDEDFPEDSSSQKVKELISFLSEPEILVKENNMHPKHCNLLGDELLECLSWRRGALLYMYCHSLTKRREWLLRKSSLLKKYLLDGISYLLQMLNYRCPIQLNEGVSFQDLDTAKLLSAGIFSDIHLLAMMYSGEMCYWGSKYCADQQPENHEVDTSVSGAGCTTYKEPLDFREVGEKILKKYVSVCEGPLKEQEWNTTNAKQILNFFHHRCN

[2] = molecular target: T2, cysteines in MDA-MB-231 and Ramos cells (Homo sapiens, UniProt P13667)
T2 sequence (P13667 21-645): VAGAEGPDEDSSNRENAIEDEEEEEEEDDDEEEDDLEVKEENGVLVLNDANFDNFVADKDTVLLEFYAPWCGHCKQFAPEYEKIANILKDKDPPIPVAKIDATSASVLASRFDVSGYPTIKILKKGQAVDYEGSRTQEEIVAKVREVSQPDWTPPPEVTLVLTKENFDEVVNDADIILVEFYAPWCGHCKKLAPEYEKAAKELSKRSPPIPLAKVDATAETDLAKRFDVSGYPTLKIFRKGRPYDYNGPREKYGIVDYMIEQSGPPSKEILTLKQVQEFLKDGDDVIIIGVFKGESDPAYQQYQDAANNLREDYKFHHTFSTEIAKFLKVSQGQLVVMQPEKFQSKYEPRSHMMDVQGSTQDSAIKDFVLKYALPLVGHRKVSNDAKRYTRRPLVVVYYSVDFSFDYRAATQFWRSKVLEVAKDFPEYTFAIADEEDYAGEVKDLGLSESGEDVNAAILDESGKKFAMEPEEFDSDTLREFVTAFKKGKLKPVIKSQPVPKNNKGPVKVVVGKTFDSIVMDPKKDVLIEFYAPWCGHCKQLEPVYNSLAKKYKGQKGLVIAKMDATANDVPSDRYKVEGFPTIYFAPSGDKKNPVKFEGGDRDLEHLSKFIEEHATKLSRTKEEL

[3] = molecular target: cysteines in MDA-MB-231 and Ramos cells (Homo sapiens, UniProt P62888)
[4] = molecular target: T3, cysteines in MDA-MB-231 and Ramos cells (Homo sapiens, UniProt Q9BQ69)
T3 sequence (Q9BQ69 1-325): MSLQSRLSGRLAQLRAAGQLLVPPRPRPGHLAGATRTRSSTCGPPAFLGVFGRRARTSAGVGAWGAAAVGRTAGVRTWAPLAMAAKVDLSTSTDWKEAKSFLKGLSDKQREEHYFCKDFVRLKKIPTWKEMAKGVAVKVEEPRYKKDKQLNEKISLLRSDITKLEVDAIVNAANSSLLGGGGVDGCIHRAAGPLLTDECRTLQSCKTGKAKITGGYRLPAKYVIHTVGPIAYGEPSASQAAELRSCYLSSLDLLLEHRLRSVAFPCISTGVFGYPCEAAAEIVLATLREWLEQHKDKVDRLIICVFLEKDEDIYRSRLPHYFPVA

[5] = molecular target: T4, cysteines in MDA-MB-231 and Ramos cells (Homo sapiens, UniProt P42765)
T4 sequence (P42765 1-397): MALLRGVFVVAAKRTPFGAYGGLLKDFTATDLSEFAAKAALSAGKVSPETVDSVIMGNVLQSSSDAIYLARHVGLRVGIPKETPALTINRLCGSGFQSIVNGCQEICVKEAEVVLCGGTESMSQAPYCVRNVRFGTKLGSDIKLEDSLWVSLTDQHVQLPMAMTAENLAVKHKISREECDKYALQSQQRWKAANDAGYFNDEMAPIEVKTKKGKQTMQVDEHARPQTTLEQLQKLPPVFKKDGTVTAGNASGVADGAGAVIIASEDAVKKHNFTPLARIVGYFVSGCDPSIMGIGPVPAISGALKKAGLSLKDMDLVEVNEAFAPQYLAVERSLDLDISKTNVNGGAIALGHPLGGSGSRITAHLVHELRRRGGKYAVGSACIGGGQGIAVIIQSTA

[6] = molecular target: T5, cysteines in MDA-MB-231 and Ramos cells (Homo sapiens, UniProt P24752)
T5 sequence (P24752 34-427): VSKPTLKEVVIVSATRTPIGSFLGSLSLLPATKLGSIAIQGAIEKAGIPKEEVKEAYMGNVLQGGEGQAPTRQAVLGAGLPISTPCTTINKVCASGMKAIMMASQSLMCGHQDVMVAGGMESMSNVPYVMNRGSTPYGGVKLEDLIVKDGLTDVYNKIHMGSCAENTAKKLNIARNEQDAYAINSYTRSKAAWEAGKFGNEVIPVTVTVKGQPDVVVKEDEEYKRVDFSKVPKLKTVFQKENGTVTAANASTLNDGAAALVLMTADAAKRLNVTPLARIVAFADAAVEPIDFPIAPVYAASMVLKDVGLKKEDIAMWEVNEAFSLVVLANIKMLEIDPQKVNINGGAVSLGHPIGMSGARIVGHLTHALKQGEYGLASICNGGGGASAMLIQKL

[7] = molecular target: T6, cysteines in MDA-MB-231 and Ramos cells (Homo sapiens, UniProt Q13418)
T6 sequence (Q13418 1-452): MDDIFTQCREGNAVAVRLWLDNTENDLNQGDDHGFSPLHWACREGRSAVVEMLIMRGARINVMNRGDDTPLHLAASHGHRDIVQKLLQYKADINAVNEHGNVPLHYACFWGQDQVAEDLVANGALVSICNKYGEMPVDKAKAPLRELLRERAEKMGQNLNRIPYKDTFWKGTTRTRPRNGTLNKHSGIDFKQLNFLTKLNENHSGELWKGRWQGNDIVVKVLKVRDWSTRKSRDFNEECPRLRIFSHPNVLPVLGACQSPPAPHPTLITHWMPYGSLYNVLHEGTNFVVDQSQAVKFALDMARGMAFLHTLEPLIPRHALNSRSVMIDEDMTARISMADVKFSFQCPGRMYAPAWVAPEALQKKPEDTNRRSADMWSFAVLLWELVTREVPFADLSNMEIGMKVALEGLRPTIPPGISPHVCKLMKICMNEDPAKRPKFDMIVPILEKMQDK

SMILES: COc1ccc2c(c1)CCCN2C(=O)CCl [compound 2]
isoTOP-ABPP reactivity A6NDU8_C179 C5orf51 ([1]; 200 μM, insitu, 231): 4.2
isoTOP-ABPP reactivity P13667_C206 PDIA4 ([2]; 200 μM, insitu, 231): 2.6
isoTOP-ABPP reactivity P13667_C555 PDIA4 ([2]; 200 μM, insitu, 231): 3.2
isoTOP-ABPP reactivity P62888_C92 RPL30 ([3]; 200 μM, insitu, 231): 1.0
isoTOP-ABPP reactivity Q9BQ69_C186 MACROD1 ([4]; 200 μM, insitu, 231): 4.8
isoTOP-ABPP reactivity P42765_C92 ACAA2 ([5]; 200 μM, insitu, 231): 20.0
isoTOP-ABPP reactivity P24752_C119 ACAT1 ([6]; 200 μM, insitu, 231): 2.6
isoTOP-ABPP reactivity P24752_C126 ACAT1 ([6]; 200 μM, insitu, 231): 9.1
isoTOP-ABPP reactivity P24752_C196 ACAT1 ([6]; 200 μM, insitu, 231): 20.0
isoTOP-ABPP reactivity P24752_C413 ACAT1 ([6]; 200 μM, insitu, 231): 20.0
isoTOP-ABPP reactivity Q13418_C346 ILK ([7]; 200 μM, insitu, 231): 1.4

SMILES: COc1ccc(C2CC(c3cccs3)=NN2C(=O)CCl)cc1 (centres unmarked) [compound 4]
isoTOP-ABPP reactivity A6NDU8_C179 C5orf51 ([1]; 100 μM in situ 231): 3.0
isoTOP-ABPP reactivity P13667_C206 PDIA4 ([2]; 100 μM in situ 231): 6.8
isoTOP-ABPP reactivity P13667_C555 PDIA4 ([2]; 100 μM in situ 231): 9.0
isoTOP-ABPP reactivity P62888_C92 RPL30 ([3]; 100 μM in situ 231): 2.7
isoTOP-ABPP reactivity Q9BQ69_C186 MACROD1 ([4]; 100 μM in situ 231): 1.8
isoTOP-ABPP reactivity P42765_C92 ACAA2 ([5]; 100 μM in situ 231): 3.7
isoTOP-ABPP reactivity P24752_C119 ACAT1 ([6]; 100 μM in situ 231): 3.0
isoTOP-ABPP reactivity P24752_C126 ACAT1 ([6]; 100 μM in situ 231): 2.8
isoTOP-ABPP reactivity P24752_C196 ACAT1 ([6]; 100 μM in situ 231): 3.5
isoTOP-ABPP reactivity P24752_C413 ACAT1 ([6]; 100 μM in situ 231): 4.5
isoTOP-ABPP reactivity Q13418_C346 ILK ([7]; 100 μM in situ 231): 0.8

SMILES: COc1cc2c(cc1OC)CN(C(=O)CCl)CC2 [compound 8]
isoTOP-ABPP reactivity P13667_C206 PDIA4 ([2]; 200 μM, insitu, 231): 15.2
isoTOP-ABPP reactivity P13667_C555 PDIA4 ([2]; 200 μM, insitu, 231): 20.0
isoTOP-ABPP reactivity P62888_C92 RPL30 ([3]; 200 μM, insitu, 231): 1.5
isoTOP-ABPP reactivity Q9BQ69_C186 MACROD1 ([4]; 200 μM, insitu, 231): 5.0
isoTOP-ABPP reactivity P42765_C92 ACAA2 ([5]; 200 μM, insitu, 231): 20.0
isoTOP-ABPP reactivity P24752_C119 ACAT1 ([6]; 200 μM, insitu, 231): 5.5
isoTOP-ABPP reactivity P24752_C126 ACAT1 ([6]; 200 μM, insitu, 231): 4.5
isoTOP-ABPP reactivity P24752_C413 ACAT1 ([6]; 200 μM, insitu, 231): 20.0

The remaining lines, values ahead:

isoTOP-ABPP reactivity A6NDU8_C179 C5orf51 ([1]; 200 μM, insitu, 231): 20.0
isoTOP-ABPP reactivity P13667_C206 PDIA4 ([2]; 200 μM, insitu, 231): 1.1
isoTOP-ABPP reactivity P13667_C555 PDIA4 ([2]; 200 μM, insitu, 231): 1.4
isoTOP-ABPP reactivity P62888_C92 RPL30 ([3]; 200 μM, insitu, 231): 1.3
isoTOP-ABPP reactivity Q9BQ69_C186 MACROD1 ([4]; 200 μM, insitu, 231): 1.2
isoTOP-ABPP reactivity P42765_C92 ACAA2 ([5]; 200 μM, insitu, 231): 4.3
isoTOP-ABPP reactivity P24752_C119 ACAT1 ([6]; 200 μM, insitu, 231): 3.8
isoTOP-ABPP reactivity P24752_C126 ACAT1 ([6]; 200 μM, insitu, 231): 14.1
isoTOP-ABPP reactivity P24752_C196 ACAT1 ([6]; 200 μM, insitu, 231): 5.8
isoTOP-ABPP reactivity P24752_C413 ACAT1 ([6]; 200 μM, insitu, 231): 19.5
isoTOP-ABPP reactivity Q13418_C346 ILK ([7]; 200 μM, insitu, 231): 2.7
SMILES: O=C(CCl)N1CCC(Cc2ccccc2)CC1 [compound 9]

isoTOP-ABPP ratio A6NDU8_C179 ([1]; 200 μM, insitu, 231): 1.3
isoTOP-ABPP ratio P13667_C206 ([2]; 200 μM, insitu, 231): 3.8
isoTOP-ABPP ratio P13667_C555 ([2]; 200 μM, insitu, 231): 3.3
isoTOP-ABPP ratio P13667_C555 ([2]; 200 μM, insitu, ramos): 1.4
isoTOP-ABPP ratio P62888_C92 ([3]; 200 μM, insitu, 231): 1.3
isoTOP-ABPP ratio P62888_C92 ([3]; 200 μM, insitu, ramos): 4.5
isoTOP-ABPP ratio Q9BQ69_C186 ([4]; 200 μM, insitu, 231): 2.4
isoTOP-ABPP ratio P42765_C92 ([5]; 200 μM, insitu, 231): 3.7
isoTOP-ABPP ratio P42765_C92 ([5]; 200 μM, insitu, ramos): 1.1
isoTOP-ABPP ratio P24752_C119 ([6]; 200 μM, insitu, 231): 4.5
isoTOP-ABPP ratio P24752_C413 ([6]; 200 μM, insitu, 231): 7.8
isoTOP-ABPP ratio, P24752_C126 ([6]; 200 μM, insitu, 231): 5.9
isoTOP-ABPP ratio, P24752_C196 ([6]; 200 μM, insitu, 231): 5.1
isoTOP-ABPP ratio P24752_C119 ([6]; 200 μM, insitu, ramos): 1.5
isoTOP-ABPP ratio P24752_C413 ([6]; 200 μM, insitu, ramos): 2.2
isoTOP-ABPP ratio, P24752_C196 ([6]; 200 μM, insitu, ramos): 2.3
isoTOP-ABPP ratio Q13418_C346 ([7]; 200 μM, insitu, 231): 1.1
isoTOP-ABPP ratio Q13418_C346 ([7]; 200 μM, insitu, ramos): 8.3
SMILES: O=C(CCl)N1CCN(S(=O)(=O)c2ccccc2F)CC1 [compound 10]

isoTOP-ABPP ratio A6NDU8_C179 ([1]; 100 μM in situ 231): 0.7
isoTOP-ABPP ratio P13667_C206 ([2]; 100 μM in situ 231): 4.1
isoTOP-ABPP ratio P62888_C92 ([3]; 100 μM in situ 231): 0.8
isoTOP-ABPP ratio Q9BQ69_C186 ([4]; 100 μM in situ 231): 1.0
isoTOP-ABPP ratio P24752_C119 ([6]; 100 μM in situ 231): 1.2
isoTOP-ABPP ratio P24752_C413 ([6]; 100 μM in situ 231): 1.2
isoTOP-ABPP ratio, P24752_C126 ([6]; 100 μM in situ 231): 1.2
isoTOP-ABPP ratio, P24752_C196 ([6]; 100 μM in situ 231): 1.1
isoTOP-ABPP ratio Q13418_C346 ([7]; 100 μM in situ 231): 0.6
SMILES: Cn1cc(S(=O)(=O)N2CCOCC2)cc1C(=O)NC(=O)CCl [compound 11]
